Square brackets hold non-standard residues; d marks the D form. Ends that are not written are not given here. Peptide text beside a SMILES is read from it. hSer = N[C@@H](CCO)C(=O)O
Assays:
E. cloacae = assay: Agar-well halo assay of bactericidal activity; assay type: cell-based; details: overnight incubation at 25° C.
Procedure: (§1) The assay for antimicrobial activity was performed by pouring 10 ml of agar in TYE media containing about 10^7 viable cells of the test organisms. Wells, 2 mm in diameter, were punched in the agar plates. Aliquots of the modified cecropin-like polypeptides (2-12 ul) were then added to each well. The diameter of the inhibition zones, or haloes, around the wells, were measured after overnight incubation at 25° C.
(§2) The activities of various cecropin-like polypeptides were tested against both Gram-negative and Gram-positive organisms. Anti-microbial activity against the Gram-negative organisms remained unaltered for most of the Gram-negative bacteria (except, i.e., Serratia marcescens) as shown in Table 1. […] To determine a standard of halo formation, the various modified cecropin-like polypeptides were also applied to E. coli D21. Activity shown in Tables 1 and 2 is expressed as the ratio of the radius of the cleared halo for each organism versus that for E. coli D21.

B. subtilis = assay: Agar-well halo assay of bactericidal activity; assay type: cell-based, Bacillus subtilis; details: for Relative activity (ratio of the radius of the cleared halo versus that for E. coli D21): B. subtilis, overnight incubation at 25° C.
Procedure: as §1, §2
(§3) The cecropin-like polypeptide modified at the carboxy terminus with ethylenediamine and naturally occurring cecropin A were tested against a variety of organisms. The relative activities of the antimicrobial agents were expressed per nanomole of polypeptide applied to each well (Table 3).

S. typhimurium = assay: Agar-well halo assay of bactericidal activity; assay type: cell-based, Salmonella typhimurium; details: overnight incubation at 25° C.
Procedure: as §1, §2

P. aeruginosa = assay: Agar-well halo assay of bactericidal activity; assay type: cell-based, Pseudomonas aeruginosa; details: overnight incubation at 25° C.
Procedure: as §1, §2

Micrococcus luteus = assay: Agar-well halo assay of bactericidal activity; assay type: cell-based; details: for Relative activity (ratio of the radius of the cleared halo versus that for E. coli D21): M. luteus, overnight incubation at 25° C.
Procedure: as §1, §2, §3

Bacillus megaterium [1] = assay: Agar-well halo assay of bactericidal activity; assay type: cell-based; details: for Relative activity (ratio of the radius of the cleared halo versus that for E. coli D21): B. megaterium, overnight incubation at 25° C.
Procedure: as §1, §2, §3

Streptococcus faecalis = assay: Agar-well halo assay of bactericidal activity; assay type: cell-based; details: for Relative activity (ratio of the radius of the cleared halo versus that for E. coli D21): S. faecalis, overnight incubation at 25° C.
Procedure: as §1, §2, §3

E. coli MC1061 = assay: Agar-well halo assay of bactericidal activity; assay type: cell-based, Escherichia coli; details: overnight incubation at 25° C.
Procedure: as §1, §2

Escherichia coli = assay: Agar-well halo assay, activity per nanomole; assay type: cell-based; details: per nanomole of polypeptide applied to each well
Procedure: as §1, §3

Bacillus megaterium [2] = details: from the literature; cited from earlier work

Row | Compound | Relative activity (ratio of the radius of the cleared halo versus that for E. coli D21) (E. cloacae) | Relative activity (ratio of the radius of the cleared halo versus that for E. coli D21) (B. subtilis) | Relative activity (ratio of the radius of the cleared halo versus that for E. coli D21) (S. typhimurium) | Relative activity (ratio of the radius of the cleared halo versus that for E. coli D21) (P. aeruginosa) | Relative activity (ratio of the radius of the cleared halo versus that for E. coli D21) (Micrococcus luteus) | Relative activity (ratio of the radius of the cleared halo versus that for E. coli D21) (Bacillus megaterium [1]) | Relative activity (ratio of the radius of the cleared halo versus that for E. coli D21) (Streptococcus faecalis) | Relative activity (ratio of the radius of the cleared halo versus that for E. coli D21) (E. coli MC1061) | Activity per Nanomole (radius of the inhibitory ring) (Escherichia coli) | Activity per Nanomole (radius of the inhibitory ring) (B. subtilis; Bacillus subtilus, per nanomole of polypeptide applied to each well) | Sensitivity of Bacillus megaterium to the cecropin (Bacillus megaterium [2]) | Activity per Nanomole (radius of the inhibitory ring) (Micrococcus luteus; Micrococcus luteus, per nanomole of polypeptide applied to each well) | Activity per Nanomole (radius of the inhibitory ring) (Bacillus megaterium [1]; Bacillus megaterium, per nanomole of polypeptide applied to each well) | Activity per Nanomole (radius of the inhibitory ring) (Streptococcus faecalis; Streptococcus faecalis, per nanomole of polypeptide applied to each well)
1 | CC[C@H](C)[C@H](NC(=O)CNC(=O)[C@H](CC(=O)O)NC(=O)[C@H](CCCNC(=N)N)NC(=O)[C@@H](NC(=O)[C@H](CC(N)=O)NC(=O)[C@H](CCC(N)=O)NC(=O)CNC(=O)[C@@H](NC(=O)[C@H](CCCCN)NC(=O)[C@H](CCC(=O)O)NC(=O)[C@@H](NC(=O)[C@H](CCCCN)NC(=O)[C@H](CCCCN)NC(=O)[C@H](Cc1ccccc1)NC(=O)[C@H](CC(C)C)NC(=O)[C@H](CCCCN)NC(=O)[C@H](Cc1c[nH]c2ccccc12)NC(=O)[C@@H](N)CCCCN)[C@@H](C)CC)C(C)C)[C@@H](C)CC)C(=O)N[C@H](C(=O)N[C@@H](CCCCN)C(=O)N[C@@H](C)C(=O)NCC(=O)N1CCC[C@H]1C(=O)N[C@@H](C)C(=O)N[C@H](C(=O)N[C@@H](C)C(=O)N[C@H](C(=O)N[C@H](C(=O)NCC(=O)N[C@@H](CCC(N)=O)C(=O)N[C@@H](C)C(=O)N[C@H](C(=O)N[C@@H](CCC(N)=O)C(=O)N[C@H](C(=O)N[C@@H](C)C(=O)N[C@@H](CCCCN)C(=O)N[C@@H](CCO)C(N)=O)[C@@H](C)CC)[C@@H](C)O)C(C)C)C(C)C)C(C)C)[C@@H](C)CC [CA-HS-CONH2] (H-KWKLFKKIEKVGQNIRDGIIKAGPAVAVVGQATQIAK[hSer]-NH2) | 0.86 | 0.06 ± 0.06 | 1.09 | 0.71 | 1.4 ± 0.2 | 0.4 | 0 | 0.81 |  |  |  |  |  | 
2 | CC[C@H](C)[C@H](NC(=O)CNC(=O)[C@H](CC(=O)O)NC(=O)[C@H](CCCNC(=N)N)NC(=O)[C@@H](NC(=O)[C@H](CC(N)=O)NC(=O)[C@H](CCC(N)=O)NC(=O)CNC(=O)[C@@H](NC(=O)[C@H](CCCCN)NC(=O)[C@H](CCC(=O)O)NC(=O)[C@@H](NC(=O)[C@H](CCCCN)NC(=O)[C@H](CCCCN)NC(=O)[C@H](Cc1ccccc1)NC(=O)[C@H](CC(C)C)NC(=O)[C@H](CCCCN)NC(=O)[C@H](Cc1c[nH]c2ccccc12)NC(=O)[C@@H](N)CCCCN)[C@@H](C)CC)C(C)C)[C@@H](C)CC)C(=O)N[C@H](C(=O)N[C@@H](CCCCN)C(=O)N[C@@H](C)C(=O)NCC(=O)N1CCC[C@H]1C(=O)N[C@@H](C)C(=O)N[C@H](C(=O)N[C@@H](C)C(=O)N[C@H](C(=O)N[C@H](C(=O)NCC(=O)N[C@@H](CCC(N)=O)C(=O)N[C@@H](C)C(=O)N[C@H](C(=O)N[C@@H](CCC(N)=O)C(=O)N[C@H](C(=O)N[C@@H](C)C(=O)N[C@@H](CCCCN)C(=O)N[C@@H](CCO)C(=O)O)[C@@H](C)CC)[C@@H](C)O)C(C)C)C(C)C)C(C)C)[C@@H](C)CC [CA-HS-COOH] (H-KWKLFKKIEKVGQNIRDGIIKAGPAVAVVGQATQIAK[hSer]-OH) | 0.79 | 0 | 1.07 | 0.76 | 0.1 ± 0.1 | 0.5 | 0 | 0.86 |  |  |  |  |  | 
3 | KWKLFKKIEKVGQNIRDGIIKAGPAVAVVGQATQIAK [CA-COOH] | 0.84 | 0 | 1.09 | 0.70 | 0 | 0.2 | 0 | 0.84 |  |  |  |  |  | 
4 | KWKLFKKIEKVGQNIRDGIIKAGPAVAVVGQATQIAK-NH2 [CA-NH2, cecropin A, reference compound] | 0.92 | 0.1 ± 0.05 | 1.06 | 0.70 | 1.2 ± 0.2 | 0.7 | 0 | 0.80 | 6.1 millimeters | < 0.5 millimeters | highly sensitive | 6.1 millimeters | 5.1 millimeters | < 0.5 millimeters
5 | cecropin B (KWKVFKKIEKMGRNIRNGIVKAGPAIAVLGEAKAL; ends and bridges not checked; UniProt P01508 27-61, looked up) [major natural antibacterial peptide purified from immune hemolymph] |  |  |  |  |  |  |  |  |  |  | highly sensitive |  |  | 
6 | cecropin D |  |  |  |  |  |  |  |  |  |  | relatively resistant |  |  | 
